Assay results reported in ChEMBL document CHEMBL4808176, “Optimization of Truncated Glucagon Peptides to Achieve Selective, High Potency, Full Antagonists” (J Med Chem, 2021).
Calls of active or inactive are those of the source. The rule behind the calls is not given here. Peptide text beside a SMILES is read from it.

What was measured:
Glucagon receptor [1] = molecular target: T1, Glucagon receptor (Homo sapiens, UniProt P47871); experiment: Antagonist activity at human GCGR expressed in HEK293 cells assessed as inhibition of glucogon-induced cAMP production by schild plot analysis; type: functional, cell-based; details: dose 0.1-1.6 µM
T1 sequence (P47871 whole entry): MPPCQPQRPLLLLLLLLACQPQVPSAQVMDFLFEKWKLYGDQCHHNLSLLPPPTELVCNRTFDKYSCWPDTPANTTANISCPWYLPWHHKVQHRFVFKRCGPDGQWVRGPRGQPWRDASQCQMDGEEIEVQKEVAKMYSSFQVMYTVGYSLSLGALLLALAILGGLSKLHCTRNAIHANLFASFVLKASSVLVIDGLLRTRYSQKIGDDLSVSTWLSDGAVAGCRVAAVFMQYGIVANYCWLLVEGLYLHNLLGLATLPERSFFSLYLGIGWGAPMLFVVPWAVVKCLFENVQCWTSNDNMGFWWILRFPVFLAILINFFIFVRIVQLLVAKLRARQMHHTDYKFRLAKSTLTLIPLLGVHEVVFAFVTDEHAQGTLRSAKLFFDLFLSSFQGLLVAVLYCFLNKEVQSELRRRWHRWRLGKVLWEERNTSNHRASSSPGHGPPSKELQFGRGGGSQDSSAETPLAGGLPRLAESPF

Glucagon receptor [2] = molecular target: T1, Glucagon receptor; experiment: Antagonist activity at human GCGR expressed in HEK293 cells assessed as inhibition of glucogon-induced cAMP production; type: functional, cell-based
Glucagon receptor [3] = molecular target: T1, Glucagon receptor; experiment: Partial antagonist activity at human GCGR expressed in HEK293 cells assessed as inhibition of glucogon-induced cAMP production; type: functional, cell-based; details: filed as antagonist
[4] = AUC in C57BL/6 mouse at 1500 nmol/kg, sc measured upto 240 mins by LC-MS analysis; type: ADME, organism-based; design: route subcutaneous, dose 1500 nmol/kg, time <=240; details: in vivo
[5] = Chemical stability of compound in PBS buffer incubated for 5 to 7 days by LC-MS analysis; type: physicochemical; details: time 5-7 day
[6] = Toxicity in C57BL/6 mouse assessed as adverse local and systemic responses at 1500 nmol/kg, sc; details: in vivo
[7] = molecular target: T2, Gastric inhibitory polypeptide receptor (Homo sapiens) (UniProt P48546); experiment: Antagonist activity at human GIPR expressed in HEK293 cells assessed as inhibition of GIP-induced cAMP production relative to control; type: functional, cell-based; details: concentration not given here
T2 sequence (whole entry): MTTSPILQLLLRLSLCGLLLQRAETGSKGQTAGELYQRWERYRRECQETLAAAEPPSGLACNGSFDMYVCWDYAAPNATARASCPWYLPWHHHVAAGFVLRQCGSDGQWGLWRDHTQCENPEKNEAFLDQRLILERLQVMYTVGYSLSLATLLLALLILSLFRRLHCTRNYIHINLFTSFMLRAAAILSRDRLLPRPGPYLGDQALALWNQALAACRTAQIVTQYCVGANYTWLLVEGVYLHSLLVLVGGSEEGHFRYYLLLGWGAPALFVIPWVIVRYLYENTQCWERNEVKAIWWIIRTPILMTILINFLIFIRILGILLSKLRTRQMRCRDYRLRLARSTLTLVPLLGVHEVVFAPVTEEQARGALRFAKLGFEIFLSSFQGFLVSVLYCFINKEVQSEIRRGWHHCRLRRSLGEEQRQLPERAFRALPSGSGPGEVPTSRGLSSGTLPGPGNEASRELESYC

Glucagon receptor [8] = molecular target: T1, Glucagon receptor; experiment: Antagonist activity at human GCGR expressed in HEK293 cells assessed as inhibition of glucogon-induced cAMP production relative to control; type: functional, cell-based; details: filed as antagonist, concentration not given here
[9] = molecular target: T3, Glucagon-like peptide 1 receptor (Mus musculus, UniProt O35659); experiment: Antagonist activity at mouse GLP1R expressed in CHO-K1 cells assessed as inhibition of GLP1-induced cAMP production; type: functional, cell-based
T3 sequence (O35659 whole entry): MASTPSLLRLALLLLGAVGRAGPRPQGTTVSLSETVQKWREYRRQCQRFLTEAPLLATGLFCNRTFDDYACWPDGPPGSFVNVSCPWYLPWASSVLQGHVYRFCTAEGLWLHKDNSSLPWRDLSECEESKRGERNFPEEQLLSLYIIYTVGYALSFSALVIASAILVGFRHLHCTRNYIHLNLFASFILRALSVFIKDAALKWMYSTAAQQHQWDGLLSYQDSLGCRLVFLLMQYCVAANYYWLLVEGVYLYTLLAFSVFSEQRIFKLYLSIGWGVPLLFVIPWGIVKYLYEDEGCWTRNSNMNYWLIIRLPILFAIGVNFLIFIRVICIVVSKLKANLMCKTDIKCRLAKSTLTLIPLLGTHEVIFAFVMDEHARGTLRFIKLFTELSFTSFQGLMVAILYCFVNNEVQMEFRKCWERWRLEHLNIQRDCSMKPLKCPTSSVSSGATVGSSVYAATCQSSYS

[10] = molecular target: Glucagon receptor (Mus musculus) (UniProt Q61606); experiment: Antagonist activity at mouse GCGR expressed in CHO-K1 cells assessed as inhibition of glucogon-induced cAMP production relative to control; type: functional, cell-based; details: filed as antagonist, concentration not given here
Glucagon receptor (Mus musculus), sequence (Q61606 whole entry): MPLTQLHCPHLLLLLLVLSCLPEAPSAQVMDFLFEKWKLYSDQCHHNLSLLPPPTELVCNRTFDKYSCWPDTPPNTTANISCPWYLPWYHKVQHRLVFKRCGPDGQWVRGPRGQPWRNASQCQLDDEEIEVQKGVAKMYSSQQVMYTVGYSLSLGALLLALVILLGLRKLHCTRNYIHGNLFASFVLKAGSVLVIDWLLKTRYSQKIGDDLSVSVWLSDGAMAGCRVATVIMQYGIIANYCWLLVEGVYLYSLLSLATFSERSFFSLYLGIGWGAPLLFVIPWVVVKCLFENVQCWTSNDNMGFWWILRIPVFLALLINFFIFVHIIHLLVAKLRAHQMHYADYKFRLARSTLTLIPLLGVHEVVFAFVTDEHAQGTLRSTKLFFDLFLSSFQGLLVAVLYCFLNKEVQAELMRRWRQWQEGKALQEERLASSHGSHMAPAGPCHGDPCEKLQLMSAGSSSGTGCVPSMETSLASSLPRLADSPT

[11] = Cmax in C57BL/6 mouse at 1500 nmol/kg, sc measured upto 240 mins by LC-MS analysis; type: ADME, organism-based; design: route subcutaneous, dose 1500 nmol/kg, time <=240; details: in vivo
[12] = molecular target: T4, Glucagon-like peptide 1 receptor (Mus musculus) (UniProt O35659); experiment: Antagonist activity at mouse GLP1R expressed in CHO-K1 cells assessed as inhibition of GLP1-induced cAMP production relative to control; type: functional, cell-based; details: concentration not given here
T4 sequence (whole entry): T3 sequence (O35659 whole entry)

[13] = molecular target: T5, Gastric inhibitory polypeptide receptor (Mus musculus) (UniProt Q0P543); experiment: Antagonist activity at mouse GIPR expressed in CHO-K1 cells assessed as inhibition of GIP-induced cAMP production relative to control; type: cell-based; details: concentration not given here
T5 sequence (whole entry): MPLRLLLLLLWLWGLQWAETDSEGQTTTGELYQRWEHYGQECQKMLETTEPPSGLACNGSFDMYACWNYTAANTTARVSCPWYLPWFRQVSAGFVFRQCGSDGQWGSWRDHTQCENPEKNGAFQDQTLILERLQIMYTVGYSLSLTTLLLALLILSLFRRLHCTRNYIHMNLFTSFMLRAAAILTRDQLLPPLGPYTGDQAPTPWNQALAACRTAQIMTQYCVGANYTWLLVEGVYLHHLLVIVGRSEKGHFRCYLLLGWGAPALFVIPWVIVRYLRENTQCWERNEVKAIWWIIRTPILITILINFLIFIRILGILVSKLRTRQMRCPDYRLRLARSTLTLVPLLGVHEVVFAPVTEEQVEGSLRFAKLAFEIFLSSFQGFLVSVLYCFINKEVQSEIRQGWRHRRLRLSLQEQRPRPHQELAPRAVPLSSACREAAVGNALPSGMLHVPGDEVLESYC

[14] = Aqueous solubility of the compound at pH 8 by LC-MS analysis; type: physicochemical; details: buffer
Glucagon receptor [15] = molecular target: Glucagon receptor (Mus musculus, UniProt Q61606); experiment: Antagonist activity at mouse GCGR expressed in CHO-K1 cells assessed as inhibition of glucogon-induced cAMP production; type: functional, cell-based
Glucagon receptor (Mus musculus, UniProt Q61606), sequence (Q61606 whole entry): as the sequence (Q61606 whole entry) above

[16] = Half life in C57BL/6 mouse at 1500 nmol/kg, sc measured upto 240 mins by LC-MS analysis; type: ADME, organism-based; details: in vivo
[17] = molecular target: T6, Gastric inhibitory polypeptide receptor (Mus musculus, UniProt Q0P543); experiment: Antagonist activity at mouse GIPR expressed in CHO-K1 cells assessed as inhibition of GIP-induced cAMP production; type: cell-based
T6 sequence (Q0P543 whole entry): T5 sequence (whole entry)

[18] = molecular target: T7, Gastric inhibitory polypeptide receptor (Homo sapiens, UniProt P48546); experiment: Antagonist activity at human GIPR expressed in HEK293 cells assessed as inhibition of GIP-induced cAMP production; type: functional, cell-based
T7 sequence (P48546 whole entry): T2 sequence (whole entry)

Mus musculus = experiment: Inhibition of IUB288-induced glucose elevation in C57BL/6 mouse at 1500 nmol/kg, sc pretreated for 15 mins followed by IUB288 stimulation and measured upto 120 mins; type: functional, organism-based; details: time 135.0 min
[19] = molecular target: Glucagon-like peptide 1 receptor (Homo sapiens, UniProt P43220); experiment: Antagonist activity at human GLP-1R expressed in HEK293 cells assessed as inhibition of GLP1-induced cAMP production; type: functional, cell-based
Glucagon-like peptide 1 receptor (Homo sapiens, UniProt P43220), sequence (P43220 whole entry): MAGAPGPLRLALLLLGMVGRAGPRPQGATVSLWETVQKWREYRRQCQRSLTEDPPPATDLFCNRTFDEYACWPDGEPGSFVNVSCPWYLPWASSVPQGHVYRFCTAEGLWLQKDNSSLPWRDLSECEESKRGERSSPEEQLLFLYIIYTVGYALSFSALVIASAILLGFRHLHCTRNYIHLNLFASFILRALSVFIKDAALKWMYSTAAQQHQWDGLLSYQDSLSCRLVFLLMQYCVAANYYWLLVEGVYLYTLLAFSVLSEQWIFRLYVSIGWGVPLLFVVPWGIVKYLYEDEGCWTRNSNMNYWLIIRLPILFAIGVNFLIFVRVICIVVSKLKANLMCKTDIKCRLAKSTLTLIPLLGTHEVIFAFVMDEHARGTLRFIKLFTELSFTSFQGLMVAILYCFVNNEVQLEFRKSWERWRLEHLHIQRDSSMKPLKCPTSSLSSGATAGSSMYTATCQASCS

In the case of H-FTSEYSKYLDSRRAQDFVQWLMNT-NH2, the Activity (Glucagon receptor [1]; filed as antagonist) is reported as “Dose-Dependent Effect” and the IC50 (Glucagon receptor [2]) is reported as 79.1 nM.

For H-LTFTSEYSKYLDSRRAQDFVQWLMNT-NH2, the Activity (Glucagon receptor [1]) was “inactive” and the Activity (Glucagon receptor [3]) was “Active”.

With `CSCC[C@H](NC(=O)[C@H](CC(C)C)NC(=O)[C@H](Cc1c[nH]c2ccccc12)NC(=O)[C@H](CCC(N)=O)NC(=O)[C@@H](NC(=O)[C@H](Cc1ccccc1)NC(=O)[C@H](CC(=O)O)NC(=O)[C@H](CCC(N)=O)NC(=O)[C@H](C)NC(=O)[C@H](CCCNC(=N)N)NC(=O)[C@H](CCCNC(=N)N)NC(=O)[C@H](CO)NC(=O)[C@H](CC(=O)O)NC(=O)[C@H](CC(C)C)NC(=O)[C@H](Cc1ccc(O)cc1)NC(=O)[C@H](CCCCN)NC(=O)[C@H](CO)NC(=O)[C@H](Cc1ccc(O)cc1)NC(=O)[C@H](CCC(=O)O)NC(=O)[C@H](CO)NC(=O)[C@@H](NC(=O)[C@@H](O)Cc1ccccc1)[C@@H](C)O)C(C)C)C(=O)N[C@@H](CC(N)=O)C(=O)N[C@H](C(N)=O)[C@@H](C)O` (HELM PEPTIDE1{[O=C([C@@H](O)Cc1ccccc1)[*:2]].T.S.E.Y.S.K.Y.L.D.S.R.R.A.Q.D.F.V.Q.W.L.M.N.T.[am]}$$$$V2.0) the Activity (Glucagon receptor [1]; filed as antagonist) was “Dose-Dependent Effect” and the IC50 (Glucagon receptor [2]) was 40 nM.

For `CSCC[C@H](NC(=O)[C@H](CC(C)C)NC(=O)[C@H](Cc1c[nH]c2ccccc12)NC(=O)[C@H](CCC(N)=O)NC(=O)[C@@H](NC(=O)[C@H](Cc1ccccc1)NC(=O)[C@H](CC(=O)O)NC(=O)[C@H](CCC(N)=O)NC(=O)[C@H](C)NC(=O)[C@H](CCCNC(=N)N)NC(=O)[C@H](CCCNC(=N)N)NC(=O)[C@H](CO)NC(=O)[C@H](CC(=O)O)NC(=O)[C@H](CC(C)C)NC(=O)[C@H](Cc1ccc(O)cc1)NC(=O)[C@H](CCCCN)NC(=O)[C@H](CO)NC(=O)[C@H](Cc1ccc(O)cc1)NC(=O)[C@H](CC(=O)O)NC(=O)[C@H](CO)NC(=O)[C@@H](NC(=O)[C@@H](O)Cc1ccccc1)[C@@H](C)O)C(C)C)C(=O)N[C@@H](CC(=O)O)C(=O)N[C@H](C(N)=O)[C@@H](C)O`, the AUC at 4 h [4] was 0.209 µM·h, the Stabilty [5] was “Stable” and the Activity [6] was “Non-Toxic”. The inhibition [7] was 20%, the inhibition (Glucagon receptor [8]) was 99% and the IC50 [9] was > 1000 nM. The inhibition [10] was 92%, the Cmax [11] was 261 nM and the inhibition [12] was 1%. The IC50 (Glucagon receptor [2]) was 12.1 nM, the inhibition [13] was 10% and the solubility [14] was > 500 µM. The IC50 (Glucagon receptor [15]) was 23.1 nM, the half-life [16] was 30.7 min and the IC50 [17] was > 1000 nM. For the same compound, the IC50 [18] was > 1000 nM, the inhibition (Mus musculus) was “Active” and the IC50 [19] was > 1000 nM.
